The conditions of data set [1]: cited from earlier work.
The conditions of data set [2]: in vivo; cited from earlier work.
Data set [3] in a line: stability testing / degradation of paliperidone. It is filed as physicochemical. The settings on record: stress conditions, stability testing (FIGS. 7, 8, 9A, 9B). An excerpt: FIGS. 8, 9A and 9B illustrate the increased stability of paliperidone in the dosage forms incorporating the protective subcoat compared to dosage forms not incorporating the protective subcoat.

Each structure is given as a SMILES string.

As for `Cc1nc2n(c(=O)c1CCN1CCC(c3noc4cc(F)ccc34)CC1)CCCC2` [risperidone], the solubility in water result in data set [1] was “practically insoluble in water”.
As for `Cc1nc2n(c(=O)c1CCN1CCC(c3noc4cc(F)ccc34)CC1)CCCC2O` (stereo not shown) [paliperidone], in data set [1], the solubility in water result is given as “practically insoluble in water”. Moreover, in data set [2], the half-life result was “about one”. Also, the degradation / stability entry in data set [3] is “degrades into notable amounts of impurities”.

The values are drawn from patent US9393192B2, “Methods and dosage forms for controlled delivery of paliperidone and risperidone” (ALZA CORPORATION, priority 2002, dated 2016).
